Measured values as given in patent US20240307409A1, “ARGININE METHYLTRANSFERASE INHIBITOR AND USE THEREOF” (Cytosinlab Therapeutics Co., Ltd., priority 2021, published 2024).

How the values were obtained:
[1] = biological target: PRMT1 (Homo sapiens, UniProt Q99873); assay: PRMT1 enzyme activity test; format: biochemical; details: 0.5 nM PRMT1, 3H-SAM, peptide
Procedure, shortened: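 Radiometric methylation assay: 0.5 nM PRMT1 preincubated 15 min at room temperature with compound (10-point 3-fold series, 1% DMSO) in pH 8.0 Tris buffer with Tween-20 and DTT. 0.25 uM ³H-SAM and 0.1 uM biotinylated peptide then reacted 120 min. Product captured on streptavidin FlashPlate and counted; IC50 from four-parameter fit of % inhibition.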

[2] = tested on: Toledo cells; assay: Toledo cell proliferation inhibition assay; format: cell-based; details: Homo sapiens, Toledo, 144 h; six-day assay, CellTiter-Glo
Procedure, shortened: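 Toledo cells seeded at 2000 cells/well in RPMI 1640 + 10% FBS and incubated with compound for six days at 37° C, 5% CO2. Viability was then read by CellTiter-Glo luminescence after 30 min orbital mixing.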

[3] = tested on: MMA in RKO cells; assay: RKO In Cell Western assay (MMA primary antibody); format: cell-based; details: Homo sapiens, 72 hours, read-out: RKO ICW_EC30
Experimental: RKO was seeded at a concentration of 20,000 cells/ml into a polylysine-coated 96-well plate (Corning #3599), with 2,000 cells per well and 100 μL of culture mediumper well. 500 nL of compound was added to the 96-well plate. 3) The 96-well plate was incubated in a 37° C., 5% CO2 incubator for 72 hours. After three days, the 96-well plate was taken from the incubator, 100 μL of 8% paraformaldehyde solution was added to each well, and the plate was placed at room temperature for 15 min. After 15 min, the liquid in the plate was shaken out and the plate was washed three times with phosphate buffer (1*PBS). The liquid in the plate was shaken out and 200 μL of membrane-breaking buffer (0.1% (v/v) Tween-20 in PBS) was added and the plate was incubated on a shaker for 30 min. After half an hour, the liquid in the plate was shaken out, and blocking buffer was added and the plate was incubated for two hours at room temperature with shaking. After that, the liquid in the plate was shaken off, and the blocking solution containing primary antibody (MMA primary antibody, CST #8711S, 1:1000 v/v) was added to the 96-well plate and the plate was incubated at 4° C. overnight with shaking. The next day, the plate was washed three times with washing solution (0.05% (v/v) Tween-20 in PBS), and a blocking solution containing secondary antibody (goat anti-rabbit IgG (H+L) Invitrogen #31460, 1:10,000 v/v) was added and the plate was incubated for two hours at room temperature. Afterwards, the 96-well plate was washed four times with washing solution. The TMB mixture was added to the 96-well plate and then the plate was incubated for 15 minutes at room temperature with shaking. After that, the reaction terminating solution was added, and the value was read at OD450 nm using an microplate reader. The plate was washed three times with washing solution, and 50 μL of janusgreen staining solution was added, and the plate was incubated for 15 minutes at room temperature with shaking. The reaction was washed ten times with water until no color residue was left. 200 μL of 0.5 M hydrochloric acid solution was added to each well and the plate was incubated for 10 min at room temperature. The value was read at OD595 nm using Flexstation.
Firstly, the ratio OD450/OD595 was calculated for each well
Each plate had six DMSO negative control groups (ZPE) and six 10 μM positive control groups (HPE), and the average of the control group ratios was used to determine the percentage of activation for each test well. The compounds to be tested were triple diluted with DMSO for a total of 8 concentration points with a starting concentration of 5 μM. The equation for calculating the activation percentage of each test well was: […]

Sequence of PRMT1 (Q99873 whole entry): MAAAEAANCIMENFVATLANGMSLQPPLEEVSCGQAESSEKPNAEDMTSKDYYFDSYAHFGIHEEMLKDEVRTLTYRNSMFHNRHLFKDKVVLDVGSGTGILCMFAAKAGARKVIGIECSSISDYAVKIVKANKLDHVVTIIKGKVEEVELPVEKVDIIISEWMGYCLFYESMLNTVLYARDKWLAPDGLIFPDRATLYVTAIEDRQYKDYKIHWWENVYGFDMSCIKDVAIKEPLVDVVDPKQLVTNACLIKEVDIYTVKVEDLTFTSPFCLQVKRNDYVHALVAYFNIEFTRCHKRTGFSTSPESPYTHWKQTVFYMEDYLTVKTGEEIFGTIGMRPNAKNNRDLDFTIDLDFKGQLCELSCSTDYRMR

CNCCN(C)Cc1cc(F)ccc1C1CCc2ccc(C(F)(F)F)cc2CC1 (stereo not drawn) [P001]
IC50 [1]: < 50 nM | IC50 [2]: < 1000 nM | EC30 [3]: 250 to 2500 nM

CNCCN(C)Cc1ccc(F)cc1[C@H]1CC[C@H](c2cccc(C)c2)CC1 [P003]
IC50 [1]: < 50 nM | IC50 [2]: < 1000 nM | EC30 [3]: < 250 nM

CNCCN(C)Cc1cc(F)ccc1[C@H]1CC[C@H](c2cccc(C)c2)CC1 [P005]
IC50 [1]: < 50 nM | IC50 [2]: < 1000 nM | EC30 [3]: 250 to 2500 nM

CNCCN(C)Cc1ccc(F)cc1C1CCc2cc(F)c(F)cc2CC1 [P007]
IC50 [1]: < 50 nM | IC50 [2]: < 1000 nM | EC30 [3]: < 250 nM

CNCCN(C)Cc1ccc(F)cc1C1CCc2cc(F)cc(F)c2CC1 (stereo not drawn) [P008]
IC50 [1]: < 50 nM | IC50 [2]: < 1000 nM | EC30 [3]: 250 to 2500 nM

CNCCN(C)Cc1cc(F)ccc1C1CCc2cc(F)c(F)cc2CC1 [P009]
IC50 [1]: < 50 nM | IC50 [2]: < 1000 nM | EC30 [3]: 250 to 2500 nM

CC[C@H]1CC[C@@H](c2ccccc2CN(C)CCNC)CC1 [P014]
IC50 [1]: < 50 nM | IC50 [2]: < 1000 nM | EC30 [3]: 250 to 2500 nM

CCC1CCC(c2ccccc2CN(C)CCNC)CC1 (stereo not drawn) [P015]
IC50 [1]: < 50 nM | IC50 [2]: < 1000 nM | EC30 [3]: 250 to 2500 nM

CNCCN(C)Cc1ccc(F)cc1C1CCN(c2cccc(C)c2)CC1 [P021]
IC50 [1]: < 50 nM | IC50 [2]: < 1000 nM | EC30 [3]: < 250 nM

CNCCN(C)Cc1ccccc1C1CCN(c2cccc(C)c2)CC1 [P022]
IC50 [1]: < 50 nM | IC50 [2]: < 1000 nM | EC30 [3]: < 250 nM

CNCCN(C)Cc1ccccc1C1CCC2(CC1)CC(C)(C)CO2 (stereo not drawn) [P039]
IC50 [1]: < 50 nM | IC50 [2]: < 1000 nM | EC30 [3]: 250 to 2500 nM

CNCCN(C)Cc1ncccc1C1CCN(c2cccc(C(C)(C)C)c2)CC1 [P044]
IC50 [1]: < 50 nM | IC50 [2]: < 1000 nM | EC30 [3]: 250 to 2500 nM

CCOC[C@H]1CC[C@H](c2ccccc2CN(C)CCNC)CC1 [P049]
IC50 [1]: < 50 nM | IC50 [2]: < 1000 nM | EC30 [3]: < 250 nM

CNCCN(C)Cc1ccccc1[C@H]1CC[C@@]2(CCCCO2)CC1 [P050]
IC50 [1]: < 50 nM | IC50 [2]: < 1000 nM | EC30 [3]: 250 to 2500 nM

CNCCN(C)Cc1ccccc1[C@H]1CC[C@]2(CCCCO2)CC1 [P051]
IC50 [1]: < 50 nM | IC50 [2]: < 1000 nM | EC30 [3]: 250 to 2500 nM

CNCCN(C)Cc1ccccc1[C@H]1CC[C@]2(CCCOC2)CC1 [P052]
IC50 [1]: < 50 nM | IC50 [2]: < 1000 nM | EC30 [3]: 250 to 2500 nM

CNCCN(C)Cc1ccccc1[C@H]1CC[C@@]2(CCCOC2)CC1 [P053]
IC50 [1]: < 50 nM | IC50 [2]: < 1000 nM | EC30 [3]: 250 to 2500 nM

CCOCC1CC=C(c2ccccc2CN(C)CCNC)CC1 (stereo not drawn) [P054]
IC50 [1]: < 50 nM | IC50 [2]: < 1000 nM | EC30 [3]: < 250 nM

CNCCN(C)Cc1ccccc1[C@H]1CC[C@H](OC(C)C)CC1 [P056]
IC50 [1]: < 50 nM | IC50 [2]: < 1000 nM | EC30 [3]: 250 to 2500 nM

CNCCN(C)Cc1ccccc1[C@H]1CC[C@@H](OC(C)C)CC1 [P057]
IC50 [1]: < 50 nM | IC50 [2]: < 1000 nM | EC30 [3]: 250 to 2500 nM

CNCCN(C)Cc1ccccc1C1CCN(c2ccc(C(F)(F)F)cc2)CC1 [P069]
IC50 [1]: < 50 nM | IC50 [2]: < 1000 nM | EC30 [3]: 250 to 2500 nM

CNCCN(C)Cc1ncccc1C1CCN(CCc2ccccc2)CC1 [P074]
IC50 [1]: < 50 nM | IC50 [2]: < 1000 nM | EC30 [3]: 250 to 2500 nM

CNCCN(C)Cc1ncccc1C1CCc2ccccc2CC1 [P075]
IC50 [1]: < 50 nM | IC50 [2]: < 1000 nM | EC30 [3]: 250 to 2500 nM

CNCCN(C)Cc1ncccc1C1CCN(c2cccc(C(F)F)c2)CC1 [P078]
IC50 [1]: < 50 nM | IC50 [2]: < 1000 nM | EC30 [3]: < 250 nM

CNCCN(C)Cc1ncccc1C1CCN(c2cc(C)cc(C)c2)CC1 [P079]
IC50 [1]: < 50 nM | IC50 [2]: < 1000 nM | EC30 [3]: < 250 nM

CNCCN(C)Cc1nc(C)ccc1C1CCN(c2cccc(C)c2)CC1 [P080]
IC50 [1]: 50 to 500 nM | IC50 [2]: < 1000 nM | EC30 [3]: 250 to 2500 nM
